Results reported in ChEMBL document CHEMBL5724914, “Linking interpersonal differences in gut microbiota composition and drug biotransformation activity” (2024).

experiment: (§1) The drug is tested on Z-012 corresponding to metagenome with ENA study accession number: PRJEB37062 and ENA sample accession number: ERS12561812 for biotransformation under anaerobic condition. The drug concentrations were measured over 9 timepoints collected between 0 and 24 hours of incubation by liquid-chromatography-coupled mass spectrometry (LC–MS); conditions: 2 µM
Further: call rule not given here.

Bacterial Biotransformation	SMILES
Compound NOT metabolized	Cc1ccc(/C(=C\CN2CCCC2)c2ccccn2)cc1 [TRIPROLIDINE]
Compound NOT metabolized	O=C(O)CCc1nc(-c2ccccc2)c(-c2ccccc2)o1 [OXAPROZIN]
Compound metabolized	CCOC(=O)[C@H](CCc1ccccc1)N[C@@H](C)C(=O)N1[C@H](C(=O)O)C[C@@H]2CCC[C@@H]21

SMILES	Bacterial Biotransformation
CN1CCN(C2=Nc3cc(Cl)ccc3Nc3ccccc32)CC1 [CLOZAPINE]	Compound NOT metabolized

experiment: (§2) The drug is tested on WLS-038 corresponding to human gut metagenome with ENA study accession number: PRJEB37062 and ENA sample accession number: ERS12561745 for biotransformation under anaerobic condition. The drug concentrations were measured over 9 timepoints collected between 0 and 24 hours of incubation by liquid-chromatography-coupled mass spectrometry (LC–MS); conditions: 2 µM

Bacterial Biotransformation	SMILES
Compound NOT metabolized	Cc1ccc(/C(=C\CN2CCCC2)c2ccccn2)cc1 [TRIPROLIDINE]
Compound metabolized	O=C(O)CCc1nc(-c2ccccc2)c(-c2ccccc2)o1 [OXAPROZIN]
Compound metabolized	CCOC(=O)[C@H](CCc1ccccc1)N[C@@H](C)C(=O)N1[C@H](C(=O)O)C[C@@H]2CCC[C@@H]21

SMILES	Bacterial Biotransformation
CN1CCN(C2=Nc3cc(Cl)ccc3Nc3ccccc32)CC1 [CLOZAPINE]	Compound NOT metabolized

experiment: as §2, with “WLS-007” for “WLS-038”, “ERS12561742” for “ERS12561745”; conditions: 2 µM

Bacterial Biotransformation	SMILES
Compound NOT metabolized	Cc1ccc(/C(=C\CN2CCCC2)c2ccccn2)cc1 [TRIPROLIDINE]
Compound metabolized	O=C(O)CCc1nc(-c2ccccc2)c(-c2ccccc2)o1 [OXAPROZIN]
Compound metabolized	CCOC(=O)[C@H](CCc1ccccc1)N[C@@H](C)C(=O)N1[C@H](C(=O)O)C[C@@H]2CCC[C@@H]21

SMILES	Bacterial Biotransformation
CN1CCN(C2=Nc3cc(Cl)ccc3Nc3ccccc32)CC1 [CLOZAPINE]	Compound NOT metabolized

experiment: as §2, with “Z-011” for “WLS-038”, “mouse” for “human”, “ERS12561811” for “ERS12561745”; conditions: 2 µM

Bacterial Biotransformation	SMILES
Compound NOT metabolized	Cc1ccc(/C(=C\CN2CCCC2)c2ccccn2)cc1 [TRIPROLIDINE]
Compound NOT metabolized	O=C(O)CCc1nc(-c2ccccc2)c(-c2ccccc2)o1 [OXAPROZIN]
Compound NOT metabolized	CCOC(=O)[C@H](CCc1ccccc1)N[C@@H](C)C(=O)N1[C@H](C(=O)O)C[C@@H]2CCC[C@@H]21

SMILES	Bacterial Biotransformation
CN1CCN(C2=Nc3cc(Cl)ccc3Nc3ccccc32)CC1 [CLOZAPINE]	Compound NOT metabolized

conditions: human gut metagenome, 24 h, 2 µM

Bacterial Biotransformation	SMILES
Compound NOT metabolized	Cc1ccc(/C(=C\CN2CCCC2)c2ccccn2)cc1 [TRIPROLIDINE]
Compound metabolized	O=C(O)CCc1nc(-c2ccccc2)c(-c2ccccc2)o1 [OXAPROZIN]
Compound metabolized	CCOC(=O)[C@H](CCc1ccccc1)N[C@@H](C)C(=O)N1[C@H](C(=O)O)C[C@@H]2CCC[C@@H]21

SMILES	Bacterial Biotransformation
CN1CCN(C2=Nc3cc(Cl)ccc3Nc3ccccc32)CC1 [CLOZAPINE]	Compound NOT metabolized

experiment: as §1, with “Z-026” for “Z-012”, “ERS12561825” for “ERS12561812”; conditions: 2 µM

Bacterial Biotransformation	SMILES
Compound NOT metabolized	Cc1ccc(/C(=C\CN2CCCC2)c2ccccn2)cc1 [TRIPROLIDINE]
Compound NOT metabolized	O=C(O)CCc1nc(-c2ccccc2)c(-c2ccccc2)o1 [OXAPROZIN]
Compound NOT metabolized	CCOC(=O)[C@H](CCc1ccccc1)N[C@@H](C)C(=O)N1[C@H](C(=O)O)C[C@@H]2CCC[C@@H]21

SMILES	Bacterial Biotransformation
CN1CCN(C2=Nc3cc(Cl)ccc3Nc3ccccc32)CC1 [CLOZAPINE]	Compound NOT metabolized

conditions: human gut metagenome, 24 h, 2 µM; remark: another data set of the same source

Bacterial Biotransformation	SMILES
Compound NOT metabolized	Cc1ccc(/C(=C\CN2CCCC2)c2ccccn2)cc1 [TRIPROLIDINE]
Compound metabolized	O=C(O)CCc1nc(-c2ccccc2)c(-c2ccccc2)o1 [OXAPROZIN]
Compound metabolized	CCOC(=O)[C@H](CCc1ccccc1)N[C@@H](C)C(=O)N1[C@H](C(=O)O)C[C@@H]2CCC[C@@H]21

SMILES	Bacterial Biotransformation
CN1CCN(C2=Nc3cc(Cl)ccc3Nc3ccccc32)CC1 [CLOZAPINE]	Compound metabolized

conditions: human gut metagenome, 24 h, 2 µM; remark: another data set of the same source

Bacterial Biotransformation	SMILES
Compound metabolized	Cc1ccc(/C(=C\CN2CCCC2)c2ccccn2)cc1 [TRIPROLIDINE]
Compound metabolized	O=C(O)CCc1nc(-c2ccccc2)c(-c2ccccc2)o1 [OXAPROZIN]
Compound metabolized	CCOC(=O)[C@H](CCc1ccccc1)N[C@@H](C)C(=O)N1[C@H](C(=O)O)C[C@@H]2CCC[C@@H]21

SMILES	Bacterial Biotransformation
CN1CCN(C2=Nc3cc(Cl)ccc3Nc3ccccc32)CC1 [CLOZAPINE]	Compound NOT metabolized

experiment: as §2, with “WLS-027” for “WLS-038”, “ERS12561744” for “ERS12561745”; conditions: 2 µM

Bacterial Biotransformation	SMILES
Compound NOT metabolized	Cc1ccc(/C(=C\CN2CCCC2)c2ccccn2)cc1 [TRIPROLIDINE]
Compound metabolized	O=C(O)CCc1nc(-c2ccccc2)c(-c2ccccc2)o1 [OXAPROZIN]
Compound metabolized	CCOC(=O)[C@H](CCc1ccccc1)N[C@@H](C)C(=O)N1[C@H](C(=O)O)C[C@@H]2CCC[C@@H]21

SMILES	Bacterial Biotransformation
CN1CCN(C2=Nc3cc(Cl)ccc3Nc3ccccc32)CC1 [CLOZAPINE]	Compound metabolized

conditions: human gut metagenome, 24 h, 2 µM; remark: another data set of the same source

Bacterial Biotransformation	SMILES
Compound NOT metabolized	Cc1ccc(/C(=C\CN2CCCC2)c2ccccn2)cc1 [TRIPROLIDINE]
Compound NOT metabolized	O=C(O)CCc1nc(-c2ccccc2)c(-c2ccccc2)o1 [OXAPROZIN]
Compound metabolized	CCOC(=O)[C@H](CCc1ccccc1)N[C@@H](C)C(=O)N1[C@H](C(=O)O)C[C@@H]2CCC[C@@H]21

SMILES	Bacterial Biotransformation
CN1CCN(C2=Nc3cc(Cl)ccc3Nc3ccccc32)CC1 [CLOZAPINE]	Compound NOT metabolized

conditions: human gut metagenome, 24 h, 2 µM; remark: another data set of the same source

Bacterial Biotransformation	SMILES
Compound NOT metabolized	Cc1ccc(/C(=C\CN2CCCC2)c2ccccn2)cc1 [TRIPROLIDINE]
Compound metabolized	O=C(O)CCc1nc(-c2ccccc2)c(-c2ccccc2)o1 [OXAPROZIN]
Compound NOT metabolized	CCOC(=O)[C@H](CCc1ccccc1)N[C@@H](C)C(=O)N1[C@H](C(=O)O)C[C@@H]2CCC[C@@H]21

SMILES	Bacterial Biotransformation
CN1CCN(C2=Nc3cc(Cl)ccc3Nc3ccccc32)CC1 [CLOZAPINE]	Compound NOT metabolized

experiment: as §2, with “Z-002” for “WLS-038”, “rabbit” for “human”, “ERS12561802” for “ERS12561745”; conditions: 2 µM

Bacterial Biotransformation	SMILES
Compound NOT metabolized	Cc1ccc(/C(=C\CN2CCCC2)c2ccccn2)cc1 [TRIPROLIDINE]
Compound metabolized	O=C(O)CCc1nc(-c2ccccc2)c(-c2ccccc2)o1 [OXAPROZIN]
Compound metabolized	CCOC(=O)[C@H](CCc1ccccc1)N[C@@H](C)C(=O)N1[C@H](C(=O)O)C[C@@H]2CCC[C@@H]21

SMILES	Bacterial Biotransformation
CN1CCN(C2=Nc3cc(Cl)ccc3Nc3ccccc32)CC1 [CLOZAPINE]	Compound metabolized

experiment: as §1, with “Z-010” for “Z-012”, “ERS12561810” for “ERS12561812”; conditions: 2 µM

Bacterial Biotransformation	SMILES
Compound NOT metabolized	Cc1ccc(/C(=C\CN2CCCC2)c2ccccn2)cc1 [TRIPROLIDINE]
Compound metabolized	O=C(O)CCc1nc(-c2ccccc2)c(-c2ccccc2)o1 [OXAPROZIN]
Compound metabolized	CCOC(=O)[C@H](CCc1ccccc1)N[C@@H](C)C(=O)N1[C@H](C(=O)O)C[C@@H]2CCC[C@@H]21

SMILES	Bacterial Biotransformation
CN1CCN(C2=Nc3cc(Cl)ccc3Nc3ccccc32)CC1 [CLOZAPINE]	Compound NOT metabolized

conditions: human gut metagenome, 24 h, 2 µM; remark: another data set of the same source

Bacterial Biotransformation	SMILES
Compound NOT metabolized	Cc1ccc(/C(=C\CN2CCCC2)c2ccccn2)cc1 [TRIPROLIDINE]
Compound metabolized	O=C(O)CCc1nc(-c2ccccc2)c(-c2ccccc2)o1 [OXAPROZIN]
Compound metabolized	CCOC(=O)[C@H](CCc1ccccc1)N[C@@H](C)C(=O)N1[C@H](C(=O)O)C[C@@H]2CCC[C@@H]21

SMILES	Bacterial Biotransformation
CN1CCN(C2=Nc3cc(Cl)ccc3Nc3ccccc32)CC1 [CLOZAPINE]	Compound metabolized

experiment: as §2, with “WLS-010” for “WLS-038”, “ERS12561743” for “ERS12561745”; conditions: 2 µM

Bacterial Biotransformation	SMILES
Compound NOT metabolized	Cc1ccc(/C(=C\CN2CCCC2)c2ccccn2)cc1 [TRIPROLIDINE]
Compound metabolized	O=C(O)CCc1nc(-c2ccccc2)c(-c2ccccc2)o1 [OXAPROZIN]
Compound metabolized	CCOC(=O)[C@H](CCc1ccccc1)N[C@@H](C)C(=O)N1[C@H](C(=O)O)C[C@@H]2CCC[C@@H]21

SMILES	Bacterial Biotransformation
CN1CCN(C2=Nc3cc(Cl)ccc3Nc3ccccc32)CC1 [CLOZAPINE]	Compound NOT metabolized

experiment: as §2, with “WLS-039” for “WLS-038”, “ERS12561746” for “ERS12561745”; conditions: 2 µM

Bacterial Biotransformation	SMILES
Compound NOT metabolized	Cc1ccc(/C(=C\CN2CCCC2)c2ccccn2)cc1 [TRIPROLIDINE]
Compound metabolized	O=C(O)CCc1nc(-c2ccccc2)c(-c2ccccc2)o1 [OXAPROZIN]
Compound metabolized	CCOC(=O)[C@H](CCc1ccccc1)N[C@@H](C)C(=O)N1[C@H](C(=O)O)C[C@@H]2CCC[C@@H]21

SMILES	Bacterial Biotransformation
CN1CCN(C2=Nc3cc(Cl)ccc3Nc3ccccc32)CC1 [CLOZAPINE]	Compound metabolized

experiment: as §2, with “WLS-240” for “WLS-038”, “ERS12561773” for “ERS12561745”; conditions: 2 µM

Bacterial Biotransformation	SMILES
Compound NOT metabolized	Cc1ccc(/C(=C\CN2CCCC2)c2ccccn2)cc1 [TRIPROLIDINE]
Compound metabolized	O=C(O)CCc1nc(-c2ccccc2)c(-c2ccccc2)o1 [OXAPROZIN]
Compound metabolized	CCOC(=O)[C@H](CCc1ccccc1)N[C@@H](C)C(=O)N1[C@H](C(=O)O)C[C@@H]2CCC[C@@H]21

SMILES	Bacterial Biotransformation
CN1CCN(C2=Nc3cc(Cl)ccc3Nc3ccccc32)CC1 [CLOZAPINE]	Compound metabolized

conditions: human gut metagenome, 24 h, 2 µM; remark: another data set of the same source

Bacterial Biotransformation	SMILES
Compound NOT metabolized	Cc1ccc(/C(=C\CN2CCCC2)c2ccccn2)cc1 [TRIPROLIDINE]
Compound metabolized	O=C(O)CCc1nc(-c2ccccc2)c(-c2ccccc2)o1 [OXAPROZIN]
Compound metabolized	CCOC(=O)[C@H](CCc1ccccc1)N[C@@H](C)C(=O)N1[C@H](C(=O)O)C[C@@H]2CCC[C@@H]21

SMILES	Bacterial Biotransformation
CN1CCN(C2=Nc3cc(Cl)ccc3Nc3ccccc32)CC1 [CLOZAPINE]	Compound NOT metabolized

experiment: as §2, with “WLS-098” for “WLS-038”, “ERS12561754” for “ERS12561745”; conditions: 2 µM

Bacterial Biotransformation	SMILES
Compound NOT metabolized	Cc1ccc(/C(=C\CN2CCCC2)c2ccccn2)cc1 [TRIPROLIDINE]
Compound metabolized	O=C(O)CCc1nc(-c2ccccc2)c(-c2ccccc2)o1 [OXAPROZIN]
Compound metabolized	CCOC(=O)[C@H](CCc1ccccc1)N[C@@H](C)C(=O)N1[C@H](C(=O)O)C[C@@H]2CCC[C@@H]21

SMILES	Bacterial Biotransformation
CN1CCN(C2=Nc3cc(Cl)ccc3Nc3ccccc32)CC1 [CLOZAPINE]	Compound metabolized

experiment: as §2, with “WLS-170” for “WLS-038”, “ERS12561762” for “ERS12561745”; conditions: 2 µM

Bacterial Biotransformation	SMILES
Compound metabolized	Cc1ccc(/C(=C\CN2CCCC2)c2ccccn2)cc1 [TRIPROLIDINE]
Compound metabolized	O=C(O)CCc1nc(-c2ccccc2)c(-c2ccccc2)o1 [OXAPROZIN]
Compound metabolized	CCOC(=O)[C@H](CCc1ccccc1)N[C@@H](C)C(=O)N1[C@H](C(=O)O)C[C@@H]2CCC[C@@H]21

SMILES	Bacterial Biotransformation
CN1CCN(C2=Nc3cc(Cl)ccc3Nc3ccccc32)CC1 [CLOZAPINE]	Compound metabolized
